Columns and labels:
[1] = tested on: Phakopsora pachyrhizi (the causal agent of Asian soybean rust); experiment: Test A: preventive spray on soybean seedlings, visual disease rating (100 = 100% control; * 50 ppm, ** 10 ppm, *** 250 ppm); assay type: in vivo; conditions: 100 = 100% disease control
Description: (§1) General protocol for preparing test suspensions for Tests A-E: the test compounds were first dissolved in acetone in an amount equal to 3% of the final volume and then suspended at the desired concentration (in ppm) in acetone and purified water (50/50 mix by volume) containing 250 ppm of the surfactant […] (polyhydric alcohol esters). The resulting test suspensions were then used in Tests A-E.
(§2) The test solution was sprayed to the point of run-off on soybean seedlings. The following day the seedlings were inoculated with a spore suspension of Phakopsora pachyrhizi (the causal agent of Asian soybean rust) and incubated in a saturated atmosphere at 22° C. for 24 h, and then moved to a growth chamber at 22° C. for 8 days, after which time visual disease ratings were made.
(§3) Results for Tests A-E are given in Table A. In the Table, a rating of 100 indicates 100% disease control and a rating of 0 indicates no disease control (relative to the controls). An asterisk “*” or a double asterisk “**” or a triple asterisk “***” next to the rating value indicates a 50 ppm, 10 ppm and 250 ppm test suspension was used, respectively. A dash (-) indicates the compound was not tested.

[2] = tested on: Puccinia recondita f. sp. tritici (the causal agent of wheat leaf rust); experiment: Test B: preventive spray on wheat seedlings, disease rating (100 = 100% control; * 50 ppm, ** 10 ppm, *** 250 ppm); assay type: in vivo; conditions: 100 = 100% disease control
Description: as §1
as §2, with “wheat” for “soybean”, “Puccinia recondita f. sp. tritici” for “Phakopsora pachyrhizi”, “wheat leaf” for “Asian soybean”, “20°” for “22°”, “6” for “8”, “time” for “time visual”
as §3

[3] = Phakopsora pachyrhizi, 10 ppm test suspension, 0 = no control
[4] = Puccinia recondita, 10 ppm test suspension, 0 = no control
[5] = 10 ppm test suspension, soybean seedlings
[6] = 10 ppm test suspension, wheat seedlings
[7] = 50 ppm test suspension, soybean seedlings
[8] = 50 ppm test suspension, wheat seedlings
[9] = 10 ppm test suspension, 0 = no control
[10] = 50 ppm test suspension, 0 = no control

| SMILES | Test A disease control rating [1, 5] | Test B disease control rating [2, 6] | further results |
| --- | --- | --- | --- |
| CCOC(=O)c1cnn(CCCc2cccc(OCC(O)(O)C(F)(F)F)c2)c1 [compound 417] |  |  | pest or weed control at 10 ppm [1, 3]: 0%; pest or weed control at 10 ppm [2, 4]: 0% |
| CCOC(=O)c1cnn(CCc2ccc(OCC3(C(F)(F)F)OCCO3)cc2)c1 [compound 133] | 79% | 0% |  |
| CCOC(=O)c1cnn(CCc2ccc(OCC(O)(O)C(F)(F)F)cc2)c1 [compound 131] |  |  | Test A disease control rating [1, 7]: 99%; Test B disease control rating [2, 8]: 86% |
| CCOC(=O)c1cn(Cc2ccc(O/C=C(\OCC)C(F)(F)F)cc2)nn1 [compound 121] | 100% | 0% |  |
| CCOC(=O)C=CCOc1ccc(O/C=C(\OCC)C(F)(F)F)cc1 [compound 96] | 13% | 0% |  |
| CCOC(=COc1ccc(CN2CCC(C(=O)OC)C2)cc1)C(F)(F)F (stereo not shown) [compound 310] |  |  | Test A disease control rating [1, 9]: 100%; Test B disease control rating [2, 9]: 0% |
| CCOC(=COc1ccc(Cc2ccnc(OCC[Si](C)(C)C)n2)cc1)C(F)(F)F [compound 313] |  |  | Test A disease control rating [1, 10]: 0%; Test B disease control rating [2, 10]: 0% |
| CCOC(=O)c1ccnn1Cc1ccc(OCC(O)(O)C(F)(F)F)cc1 [compound 234] |  |  | Test A disease control rating [1, 7]: 100%; Test B disease control rating [2, 8]: 92% |
| CCO/C(=C\Oc1cccc(Cn2cc(C(=O)OC(C)C)cn2)c1)C(F)(F)F [compound 332] |  |  | Test A disease control rating [1, 9]: 100%; Test B disease control rating [2, 9]: 0% |
| CCO/C(=C\Oc1ccc(Cn2ncnc2C(=O)OC)cc1)C(F)(F)F [compound 122] | 0% | 0% |  |
| CCOC(=O)c1cnn(COc2cccc(O/C=C(\OCC)C(F)(F)F)c2)c1 [compound 321] |  |  | pest or weed control at 10 ppm [1, 3]: 100%; pest or weed control at 10 ppm [2, 4]: 0% |
| O=C(OCc1ccncc1)c1cnn(Cc2ccc(OCC3(C(F)(F)F)OCCO3)cc2)c1 [compound 201] | 100% | 0% |  |
| C#CCOC(=O)c1ccn(Cc2ccc(O/C=C(\OCC)C(F)(F)F)cc2)n1 [compound 325] |  |  | Test A disease control rating [1, 9]: 100%; Test B disease control rating [2, 9]: 0% |
| FC(F)(F)C1(COc2ccc(OCC3(C(F)(F)F)OCCO3)cc2)OCCO1 [compound 28] | 0% | 0% |  |
| O=C(OCc1ccc(Cl)c(Cl)c1)c1cnn(Cc2ccc(OCC(O)(O)C(F)(F)F)cc2)c1 [compound 49] | 0% | 86% |  |
| COC(C)C(=O)NCc1ccc(OCC2(C(F)(F)F)OCCO2)cc1 (stereo not shown) [compound 214] | 0% | 0% |  |
| CCO/C(=C\Oc1ccc(CCn2cc(C(=O)O)cn2)cc1)C(F)(F)F [compound 328] |  |  | Test A disease control rating [1, 9]: 100%; Test B disease control rating [2, 9]: 0% |
| CCOC(=COc1ccc(CC2CC(C(=O)N(C)C)=NO2)cc1)C(F)(F)F (stereo not shown) [compound 288] |  |  | Test A disease control rating [1, 10]: 96%; Test B disease control rating [2, 10]: 0% |
| CCOC(=O)c1ccnn1Cc1ccc(OC=C(OCC)C(F)(F)F)cc1 [compound 241] | 0% | 0% |  |
| CCO/C(=C\Oc1ccc(C(N)=O)cc1)C(F)(F)F [compound 99] | 0% | 80% |  |
| COC(=O)NN=Cc1ccc(OCC2(C(F)(F)F)OCCO2)cc1 [compound 27] | 0% | 0% |  |
| CCOC(=O)c1cnn(Cc2cccc(O/C=C(\OC)C(F)(F)F)c2)c1 [compound 365] |  |  | Test A disease control rating [1, 9]: 100%; Test B disease control rating [2, 9]: 0% |

| SMILES | Test A disease control rating [1, 5] | Test B disease control rating [2, 6] | further results |
| --- | --- | --- | --- |
| CCOC(=O)Cc1nnn(Cc2ccc(O/C=C(\OCC)C(F)(F)F)cc2)n1 [compound 83] | 82% | 0% |  |
| CCOC(=COc1ccc(CSC(C)=O)cc1)C(F)(F)F [compound 445] |  |  | Test A disease control rating [1, 10]: 38%; Test B disease control rating [2, 10]: 0% |
| CCOC(=O)c1cnn(Cc2ccc(NCC3(C(F)(F)F)OCCO3)cc2)c1 [compound 443] |  |  | Test A disease control rating [1, 10]: 48%; Test B disease control rating [2, 10]: 0% |
| O=C(CC(F)(F)F)NCc1ccc(OCC2(C(F)(F)F)OCCO2)cc1 [compound 212] | 44% | 0% |  |
| CCOC(=O)c1cnn(COc2cccc(OCC3(C(F)(F)F)OCCO3)c2)c1 [compound 353] |  |  | pest or weed control at 50 ppm ([1]; Phakopsora pachyrhizi, 50 ppm test suspension, 0 = no control): 0%; pest or weed control at 50 ppm ([2]; Puccinia recondita, 50 ppm test suspension, 0 = no control): 0% |
| CCO/C(=C\Oc1ccc(Cn2cc(Cl)cn2)cc1)C(F)(F)F [compound 180] | 0% | 0% |  |
| CCOC(=COc1ccc(COC)cc1)C(F)(F)F [compound 433] |  |  | Test A disease control rating [1, 10]: 0%; Test B disease control rating [2, 10]: 0% |
| CCO/C(=C\Oc1cccc(Cn2cc(C(=O)OCC(C)C)cn2)c1)C(F)(F)F [compound 334] |  |  | Test A disease control rating [1, 9]: 100%; Test B disease control rating [2, 9]: 0% |
| CCO/C(=C\Oc1ccc(Cn2ccc(C(=O)OCCCCl)n2)cc1)C(F)(F)F [compound 362] |  |  | Test A disease control rating [1, 9]: 100%; Test B disease control rating [2, 9]: 0% |
| CSc1nccc(Cc2ccc(OCC3(C(F)(F)F)OCCO3)cc2)n1 [compound 281] |  |  | Test A disease control rating [1, 10]: 95%; Test B disease control rating [2, 10]: 98% |
| CCOCc1cnn(Cc2ccc(OCC3(C(F)(F)F)OCCO3)cc2)c1 [compound 240] | 99% | 0% |  |
| CCO/C(=C\Oc1ccc(Cn2cc(C(=O)OC)c3ccccc32)cc1)C(F)(F)F [compound 91] | 0% | 0% |  |
| O=C(OCc1ccccc1)c1cnn(Cc2ccc(OCC(O)(O)C(F)(F)F)cc2)c1 [compound 47] |  |  | Test A disease control rating [1, 7]: 100%; Test B disease control rating [2, 8]: 95% |
| N#Cc1cnn(Cc2ccc(OCC3(C(F)(F)F)OCCO3)cc2)c1 [compound 209] | 89% | 0% |  |
| C=CCNC(=O)c1ccc(O/C=C(\OCC)C(F)(F)F)cc1 [compound 103] | 0% | 0% |  |
| COC(=O)NN=Cc1ccc(OCC(O)(O)C(F)(F)F)cc1 [compound 33] | 96% | 86% |  |
| CCO/C(=C\Oc1ccc(CSC#N)cc1)C(F)(F)F [compound 155] | 0% | 0% |  |
| C=CCOC(=O)c1cnn(Cc2ccc(OCC(O)(O)C(F)(F)F)cc2)c1 [compound 43] | 96% | 60% |  |
| CC(C)COC(=O)NCc1ccc(OCC2(C(F)(F)F)OCCO2)cc1 [compound 112] | 0% | 0% |  |
| CCO/C(=C\Oc1cccc(Cn2cc(C(=O)NC3CCCC3)cn2)c1)C(F)(F)F [compound 390] |  |  | Test A disease control rating [1, 10]: 0% |
| CCO/C(=C\Oc1cccc(Cn2cc(C(=O)NC3CC3)cn2)c1)C(F)(F)F [compound 391] |  |  | Test A disease control rating [1, 10]: 0% |
| CC#CCOC(=O)c1cnn(Cc2ccc(OCC3(C(F)(F)F)OCCO3)cc2)c1 [Compound 163, 2-butyn-1-yl 1-[[4-[[2-(trifluoromethyl)-1,3-dioxolan-2-yl]methoxy]phenyl]methyl]-1H-pyrazole-4-carboxylate] |  |  | pest or weed control at 10 ppm ([2]; Puccinia recondita, 10 ppm test suspension, wheat seedlings): 0% |

From patent US20240122180A1, “FUNGICIDAL HALOMETHYL KETONES AND HYDRATES AND THEIR MIXTURES” (FMC Corporation, priority 2020, published 2024)
